Structures can show the parent of a compound that is named as a salt.

T1 sequence (Q01718 whole entry): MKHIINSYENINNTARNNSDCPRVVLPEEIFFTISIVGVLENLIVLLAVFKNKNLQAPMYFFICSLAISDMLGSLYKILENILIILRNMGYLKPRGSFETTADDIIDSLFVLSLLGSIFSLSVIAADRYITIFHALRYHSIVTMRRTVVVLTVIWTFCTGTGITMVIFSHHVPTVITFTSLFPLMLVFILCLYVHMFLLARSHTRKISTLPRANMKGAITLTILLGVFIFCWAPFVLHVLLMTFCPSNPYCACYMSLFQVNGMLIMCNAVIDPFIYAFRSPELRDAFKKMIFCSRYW
T1 sequence (Q8TCY5 whole entry partner): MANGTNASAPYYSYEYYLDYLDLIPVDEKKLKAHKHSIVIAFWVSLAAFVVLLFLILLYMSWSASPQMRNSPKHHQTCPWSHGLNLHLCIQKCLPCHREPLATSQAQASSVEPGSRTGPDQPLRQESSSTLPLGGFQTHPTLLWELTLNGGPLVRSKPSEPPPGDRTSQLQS

The first assay has as its target T1, human MC2R (Homo sapiens, UniProt Q01718).
T1 construct: host or cells: GeneBLAzer MC2R-CRE-bla CHO-K1 cells
The assay is described as follows: Measurement of human MC2R inhibitory activity using intracellular cAMP concentration as an indicator. The assay is classed as cell-based. The conditions noted are these: test compound at 1 µM; GeneBLAzer MC2R-CRE-bla CHO-K1 cells; ACTH (Human 1-24) final concentration 3 pM; intracellular cAMP by HTRF. On the procedure:
Experimental Example 1: Measurement of human MC2R inhibitory activity using intracellular cAMP concentration as an indicator
GeneBLAzer MC2R-CRE-bla CHO-K1 cells (Thermo Fisher Scientific) that had been cryopreserved in advance were thawed and suspended in a medium [Dulbecco's Modified Eagle Medium (Thermo Fisher Scientific) containing fetal bovine serum (10% (v/v), HyClone Laboratories), Non-Essential Amino Acids Solution (1/100 (w/w), Thermo Fisher Scientific), HEPES (25 mM, Thermo Fisher Scientific), Penicillin/Streptomycin (1/100 (w/w), Fujifilm Wako)]. After centrifuging the cell suspension, the supernatant was removed, the cells were suspended in D-PBS(-) (Fujifilm Wako), and the supernatant was removed again after centrifugation. The cells were resuspended in an assay buffer [Hank's Balanced Salt Solution (Thermo Fisher Scientific) containing HEPES pH 7.5 (10 mM, Thermo Fisher Scientific), fatty acid-free bovine serum albumin (0.01% (w/v), Sigma), IBMX (500 µM, Fujifilm Wako)] and added to a 384-well white plate (Greiner) at 1,500 cells/well. Then, the test compound prepared using the assay buffer was added, and after standing for 20 min, an assay buffer containing ACTH (Human 1-24) (Peptide Institute) was added (ACTH final concentration, 3 pM). After standing at room temperature for 30 min, the intracellular cAMP level was measured using cAMP Gs HiRange kit HTRF (PerkinElmer). The inhibition rate (%) of the compound against MC2R was calculated using the following formula. Inhibition rate (%) = […] [formula] • A: cAMP concentration calculated from wells containing 3 pM ACTH (1-24) • B: cAMP concentration calculated from wells without addition of 3 pM ACTH (1-24) • C: cAMP concentration calculated from wells containing 3 pM ACTH (1-24) and test compound at concentration determined in advance
On to `CCOc1ncccc1-c1ccc(N2CCN3C(=O)N(c4ccc(Cl)cc4C(F)(F)F)C[C@@H]3C2)c(C(=O)NC2CCNC2)n1` (stereo partly drawn) [Example 24, 3-[(8aS)-2-[4-chloro-2-(trifluoromethyl)phenyl]-3-oxo-5,6,8,8a-tetrahydro-1H-imidazo[1,5-a]pyrazin-7-yl]-6-(2-ethoxypyridin-3-yl)-N-pyrrolidin-3-ylpyridine-2-carboxamide 2hydrochloride], for which the “MC2R inhibition rate (% of inhibition)” value was 100%. In the case of `CCOc1ncccc1-c1ccc(N2CCN3C(=O)N(c4ccc(Cl)cc4C(F)(F)F)C[C@@H]3C2)c(C(=O)NCCC2CCNCC2)n1` [Example 25, 3-[(8aS)-2-[4-chloro-2-(trifluoromethyl)phenyl]-3-oxo-5,6,8,8a-tetrahydro-1H-imidazo[1,5-a]pyrazin-7-yl]-6-(2-ethoxypyridin-3-yl)-N-(2-piperidin-4-ylethyl)pyridine-2-carboxamide 2 hydrochloride], the “MC2R inhibition rate (% of inhibition)” value was found to be 99%.

Staying with this assay, now noted: test compound at 1 µM; GeneBLAzer MC2R-CRE-bla CHO-K1 cells; ACTH (Human 1-24) final concentration 3 pM; intracellular cAMP by HTRF; read-out: MC2R inhibition rate (% of inhibition).
With `CCOc1ncccc1-c1ccc(N2CCN3C(=O)N(c4ccc(Cl)cc4C(F)(F)F)C[C@@H]3C2)c(C(=O)NCCC2CCN(C(=O)OC(C)(C)C)CC2)n1` [Example 21, tert-butyl 4-[2-[[3-[(8aS)-2-[4-chloro-2-(trifluoromethyl)phenyl]-3-oxo-5,6,8,8a-tetrahydro-1H-imidazo[1,5-a]pyrazin-7-yl]-6-(2-ethoxypyridin-3-yl)pyridine-2-carbonyl]amino]ethyl]piperidine-1-carboxylate], the inhibition at 1 µM was determined as 82%. Turning to `CCOc1ncccc1-c1ccc(N2CCN3C(=O)N(c4ccc(Cl)cc4C(F)(F)F)C[C@@H]3C2)c(C(=O)NCCCn2cccn2)n1` [Example 22, 3-[(8aS)-2-[4-chloro-2-(trifluoromethyl)phenyl]-3-oxo-5,6,8,8a-tetrahydro-1H-imidazo[1,5-a]pyrazin-7-yl]-6-(2-ethoxypyridin-3-yl)-N-(3-pyrazol-1-ylpropyl)pyridine-2-carboxamide], the inhibition at 1 µM amounted to 100%. On to `CCOc1ncccc1-c1ccc(N2CCN3C(=O)N(c4ccc(Cl)cc4C(F)(F)F)C[C@@H]3C2)c(C(=O)N[C@@H]2CCN(C)C2)n1` [Example 23, 3-[(8aS)-2-[4-chloro-2-(trifluoromethyl)phenyl]-3-oxo-5,6,8,8a-tetrahydro-1H-imidazo[1,5-a]pyrazin-7-yl]-6-(2-ethoxypyridin-3-yl)-N-[(3R)-1-methylpyrrolidin-3-yl]pyridine-2-carboxamide], for which the inhibition at 1 µM stood at 100%. For the molecule `CCOc1ncccc1-c1ccc(N2C[C@H]3CN(c4ccc(Cl)cc4C(F)(F)F)C(=O)N3C[C@H]2CC)c(C(=O)NCCN(C)C)n1` [Example 26, 3-[(6R,8aS)-2-[4-chloro-2-(trifluoromethyl)phenyl]-6-ethyl-3-oxo-5,6,8,8a-tetrahydro-1H-imidazo[1,5-a]pyrazin-7-yl]-N-[2-(dimethylamino)ethyl]-6-(2-ethoxypyridin-3-yl)pyridine-2-carboxamide], the inhibition at 1 µM turned out to be 100%.

In the case of `CCOc1ncccc1-c1ccc(N2C[C@H]3CN(c4ccc(Cl)cc4C(F)(F)F)C(=O)N3C[C@H]2CC)c(C(N)=O)n1` [Example 27, 3-[(6R,8aS)-2-[4-chloro-2-(trifluoromethyl)phenyl]-6-ethyl-3-oxo-5,6,8,8a-tetrahydro-1H-imidazo[1,5-a]pyrazin-7-yl]-6-(2-ethoxypyridin-3-yl)pyridine-2-carboxamide], the inhibition at 1 µM was found to be 100%. For the molecule `CCOc1ncccc1-c1ccc(N2CCN3C(=O)N(c4ccc(Cl)cc4C(F)(F)F)C[C@@H]3C2)c(C(=O)NC2CCNC2)n1` (stereo partly drawn) [Example 28, 3-[(8aS)-2-[4-chloro-2-(trifluoromethyl)phenyl]-3-oxo-5,6,8,8a-tetrahydro-1H-imidazo[1,5-a]pyrazin-7-yl]-6-(2-ethoxypyridin-3-yl)-N-pyrrolidin-3-ylpyridine-2-carboxamide], the inhibition at 1 µM was determined as 100%. Same read-out and setting: the result for `CCOc1ncccc1-c1ccc(N2C[C@H]3CN(c4ccc(Cl)cc4C(F)(F)F)C(=O)N3C[C@H]2CC)c(C(=O)NC2CNC(=O)C2)n1` (stereo partly drawn) [Example 29, 3-[(6R,8aS)-2-[4-chloro-2-(trifluoromethyl)phenyl]-6-ethyl-3-oxo-5,6,8,8a-tetrahydro-1H-imidazo[1,5-a]pyrazin-7-yl]-6-(2-ethoxypyridin-3-yl)-N-(5-oxopyrrolidin-3-yl)pyridine-2-carboxamide] reads 100%; that for `CCOc1ncccc1-c1ccc(N2C[C@H]3CN(c4ccc(Cl)cc4C(F)(F)F)C(=O)N3C[C@H]2CC)c(C(=O)NCC2(O)CC2)n1` [Example 32, 3-[(6R,8aS)-2-[4-chloro-2-(trifluoromethyl)phenyl]-6-ethyl-3-oxo-5,6,8,8a-tetrahydro-1H-imidazo[1,5-a]pyrazin-7-yl]-6-(2-ethoxypyridin-3-yl)-N-[(1-hydroxycyclopropyl)methyl]pyridine-2-carboxamide], 100%; that for `CCOc1ncccc1-c1ccc(N2C[C@H]3CN(c4ccc(Cl)cc4C(F)(F)F)C(=O)N3C[C@H]2CC)c(C(=O)NC[C@@H](C)O)n1` [Example 33, 3-[(6R,8aS)-2-[4-chloro-2-(trifluoromethyl)phenyl]-6-ethyl-3-oxo-5,6,8,8a-tetrahydro-1H-imidazo[1,5-a]pyrazin-7-yl]-6-(2-ethoxypyridin-3-yl)-N-[(2R)-2-hydroxypropyl]pyridine-2-carboxamide], 100%. Still for that read-out and setting: the result for `CCOc1ncccc1-c1ccc(N2C[C@H]3CN(c4ccc(Cl)cc4C(F)(F)F)C(=O)N3C[C@H]2CC)c(C(=O)NCC(C)(C)O)n1` [Example 35, 3-[(6R,8aS)-2-[4-chloro-2-(trifluoromethyl)phenyl]-6-ethyl-3-oxo-5,6,8,8a-tetrahydro-1H-imidazo[1,5-a]pyrazin-7-yl]-6-(2-ethoxypyridin-3-yl)-N-(2-hydroxy-2-methylpropyl)pyridine-2-carboxamide] reads 100%; that for `CCOc1ncccc1-c1ccc(N2C[C@H]3CN(c4ccc(Cl)cc4C(F)(F)F)C(=O)N3C[C@H]2CC)c(C(=O)NCCNC(C)=O)n1` [Example 36, N-(2-acetamidoethyl)-3-[(6R,8aS)-2-[4-chloro-2-(trifluoromethyl)phenyl]-6-ethyl-3-oxo-5,6,8,8a-tetrahydro-1H-imidazo[1,5-a]pyrazin-7-yl]-6-(2-ethoxypyridin-3-yl)pyridine-2-carboxamide], 100%; that for `CCOc1ncccc1-c1ccc(N2C[C@H]3CN(c4ccc(Cl)cc4C(F)(F)F)C(=O)N3C[C@H]2CC)c(C(=O)O)n1` [Example 38a, 3-[(6R,8aS)-2-[4-chloro-2-(trifluoromethyl)phenyl]-6-ethyl-3-oxo-5,6,8,8a-tetrahydro-1H-imidazo[1,5-a]pyrazin-7-yl]-6-(2-ethoxy-3-pyridyl)pyridine-2-carboxylic acid], 91%. `CCOc1ncccc1-c1ccc(N2C[C@H]3CN(c4ccc(Cl)cc4C(F)(F)F)C(=O)N3C[C@H]2CC)c(C(=O)N[C@@H]2CNC(=O)C2)n1` [Example 39, 3-[(6R,8aS)-2-[4-chloro-2-(trifluoromethyl)phenyl]-6-ethyl-3-oxo-5,6,8,8a-tetrahydro-1H-imidazo[1,5-a]pyrazin-7-yl]-6-(2-ethoxypyridin-3-yl)-N-[(3S)-5-oxopyrrolidin-3-yl]pyridine-2-carboxamide]: the inhibition at 1 µM turned out to be 100%.

These data come from patent EP4714953A1, “MELANOCORTIN 2-TYPE RECEPTOR ANTAGONIST” (Scohia Pharma, Inc., priority 2023, dated 2024).
